# Measurements reported in PMC9101838, “Novel CFTR Activator Cact-3 Ameliorates Ocular Surface Dysfunctions in Scopolamine-Induced Dry Eye Mice” (International Journal of Molecular Sciences, 2022).
# Target: T1, Cystic fibrosis transmembrane conductance regulator (CFTR) (Homo sapiens, UniProt P13569)
# T1 construct: human WT-CFTR
# Assay: apical membrane current in FRT cells expressing human WT-CFTR; whole-cell patch clamp in CHO-K1 cells; no change in cAMP
# Format: cell-based
# T1 sequence (P13569 whole entry): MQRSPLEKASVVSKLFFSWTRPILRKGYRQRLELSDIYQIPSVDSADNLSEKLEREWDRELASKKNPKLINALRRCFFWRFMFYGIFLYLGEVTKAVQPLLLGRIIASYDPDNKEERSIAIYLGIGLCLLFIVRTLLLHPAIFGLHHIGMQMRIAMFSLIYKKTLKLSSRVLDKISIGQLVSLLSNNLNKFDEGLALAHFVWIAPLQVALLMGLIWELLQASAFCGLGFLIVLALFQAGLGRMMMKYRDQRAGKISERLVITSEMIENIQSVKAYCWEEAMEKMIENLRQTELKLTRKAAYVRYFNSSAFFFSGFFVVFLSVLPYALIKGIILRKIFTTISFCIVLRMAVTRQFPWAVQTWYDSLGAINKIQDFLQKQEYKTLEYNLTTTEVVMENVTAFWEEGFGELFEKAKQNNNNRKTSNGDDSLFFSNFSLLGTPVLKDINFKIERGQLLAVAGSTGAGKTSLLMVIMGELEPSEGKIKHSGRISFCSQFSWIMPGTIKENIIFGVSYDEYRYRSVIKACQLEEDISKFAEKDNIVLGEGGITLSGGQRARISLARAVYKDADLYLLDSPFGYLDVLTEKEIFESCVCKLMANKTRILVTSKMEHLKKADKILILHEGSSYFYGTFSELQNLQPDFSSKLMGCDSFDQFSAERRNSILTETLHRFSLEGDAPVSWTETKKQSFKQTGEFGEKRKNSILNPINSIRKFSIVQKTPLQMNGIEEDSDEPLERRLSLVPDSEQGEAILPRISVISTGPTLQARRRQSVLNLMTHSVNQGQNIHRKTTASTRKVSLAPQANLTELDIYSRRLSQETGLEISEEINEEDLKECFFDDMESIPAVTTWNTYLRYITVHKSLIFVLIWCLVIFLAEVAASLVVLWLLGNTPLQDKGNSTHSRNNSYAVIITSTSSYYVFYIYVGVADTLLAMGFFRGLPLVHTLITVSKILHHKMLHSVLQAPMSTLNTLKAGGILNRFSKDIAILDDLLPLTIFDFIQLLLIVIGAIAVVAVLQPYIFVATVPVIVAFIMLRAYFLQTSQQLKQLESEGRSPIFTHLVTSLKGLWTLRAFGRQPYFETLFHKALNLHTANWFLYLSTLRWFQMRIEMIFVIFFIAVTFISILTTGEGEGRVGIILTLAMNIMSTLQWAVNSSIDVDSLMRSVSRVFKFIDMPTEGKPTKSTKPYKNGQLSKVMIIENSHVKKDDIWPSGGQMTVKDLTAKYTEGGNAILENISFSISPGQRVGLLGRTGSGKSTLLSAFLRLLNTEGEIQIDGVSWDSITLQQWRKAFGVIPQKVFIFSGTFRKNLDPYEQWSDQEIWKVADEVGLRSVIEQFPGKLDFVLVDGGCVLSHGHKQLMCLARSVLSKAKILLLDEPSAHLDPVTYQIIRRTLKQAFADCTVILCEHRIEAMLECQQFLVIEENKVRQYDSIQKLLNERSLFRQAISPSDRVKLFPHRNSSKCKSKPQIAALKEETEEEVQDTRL
compound,measurement,value
"CCOc1ccc(NC(=O)c2cc3nccc(-c4ccc(OC)c(OC)c4)n3n2)cc1 [Cact-3, 7-(3,4-dimethoxyphenyl)-N-(4-ethoxyphenyl)pyrazolo [1,5-α]pyrimidine-2-carboxamide]",EC50,255 nM
